Data from doi:10.1101/2022.10.01.510427v1 (biorxiv, 2022).

Biological target: T1, Gaussia luciferase (GLuc) (Gaussia princeps (in: crustaceans), UniProt Q9BLZ2)
T1 sequence (Q9BLZ2 18-185): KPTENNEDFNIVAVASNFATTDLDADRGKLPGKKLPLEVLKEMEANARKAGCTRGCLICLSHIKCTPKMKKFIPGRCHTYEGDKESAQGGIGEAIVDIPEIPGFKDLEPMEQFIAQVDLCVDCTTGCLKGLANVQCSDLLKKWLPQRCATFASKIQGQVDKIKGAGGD
Assay: bioluminescence inhibition assay
Format: biochemical

O=c1n(Cc2ccc(O)cc2)nc2c(Cc3ccccc3)nc(-c3ccc(O)cc3)cn12 [Aza-CTZ]
IC50: 10 to 100 µM
